Test results: patent US20260146035A1, “FUSED BICYCLIC COMPOUNDS AND THEIR USE AS MER AND AXL INHIBITORS” (DONG-A ST CO., LTD., priority 2022, published 2026)

Tests used:
human AXL (473-end) = molecular target: T1, human AXL (473-end) (Homo sapiens, UniProt P30530); test: HTRF kinase activity biochemical assay, AXL; conditions: 10 μM ATP, 30 minutes pre-incubation
T1 construct: human AXL (473-end); purchased SignalChem, Canada
T1 sequence (P30530 473-894 limits assumed): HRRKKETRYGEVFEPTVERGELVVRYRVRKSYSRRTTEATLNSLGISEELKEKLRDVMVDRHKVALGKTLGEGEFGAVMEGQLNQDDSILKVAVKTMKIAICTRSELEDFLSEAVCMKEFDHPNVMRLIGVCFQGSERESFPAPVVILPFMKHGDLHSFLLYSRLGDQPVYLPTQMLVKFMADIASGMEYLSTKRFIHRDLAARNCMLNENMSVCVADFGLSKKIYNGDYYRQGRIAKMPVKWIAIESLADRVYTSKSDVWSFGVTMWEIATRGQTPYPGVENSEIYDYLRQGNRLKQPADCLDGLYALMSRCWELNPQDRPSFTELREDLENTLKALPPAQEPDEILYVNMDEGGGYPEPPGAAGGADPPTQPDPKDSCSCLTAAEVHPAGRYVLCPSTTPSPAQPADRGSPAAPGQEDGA
Protocol: (§1) For the SAR (structure-activity relationship) and compound screening, HTRF (Homogeneous Time Resolved Fluorescence) kinase activity assay was employed for all MER, AXL and TYRO3 kinases using Cisbio HTRF® KinEASE™-TK kit (Cisbio, USA). The kit included biotin-labeled TK substrate, streptavidin-XL665, Eu3+-cryptate-labeled TK antibody and HTRF® Detection buffer. There are two main steps in the kinase assay: kinase reaction and detection of phosphorylated substrate. The reaction was carried out in white low volume 384-well plate (Corning, USA) with 25 nL compound in dimethyl sulfoxide in each well. […] After 1 hour incubation at room temperature, the fluorescence intensity was measured with Envision[…] plate reader (PerkinElmer, USA). Upon excitation at 340 nm by UV, the energy from Eu3+ donor of the antibody is transferred to the FRET acceptor XL665, and […] emits light at 665 nm.

human MER (528-end) = molecular target: T2, human MER (528-end) (Homo sapiens, UniProt Q12866); test: HTRF kinase activity biochemical assay, MER; conditions: 10 μM ATP, 30 minutes pre-incubation; read-out: HTRF MERTK IC50
T2 construct: human MER (528-end); purchased Camnabio, Japan
T2 sequence (Q12866 528-999 limits assumed): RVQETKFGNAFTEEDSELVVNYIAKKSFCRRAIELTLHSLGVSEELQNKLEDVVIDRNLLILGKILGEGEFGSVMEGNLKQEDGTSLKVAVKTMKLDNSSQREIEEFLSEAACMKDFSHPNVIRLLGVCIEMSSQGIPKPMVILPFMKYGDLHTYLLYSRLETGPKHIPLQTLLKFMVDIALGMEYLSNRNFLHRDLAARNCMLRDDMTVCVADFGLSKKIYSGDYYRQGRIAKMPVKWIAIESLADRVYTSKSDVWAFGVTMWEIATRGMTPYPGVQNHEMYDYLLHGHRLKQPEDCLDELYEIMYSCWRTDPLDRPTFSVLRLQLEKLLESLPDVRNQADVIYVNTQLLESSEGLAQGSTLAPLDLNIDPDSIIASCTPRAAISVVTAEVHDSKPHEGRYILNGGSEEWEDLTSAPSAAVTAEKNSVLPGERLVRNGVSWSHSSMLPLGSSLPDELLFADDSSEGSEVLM
Protocol: as §1

human TYRO3 (455-end) = molecular target: T3, human TYRO3 (455-end) (Homo sapiens, UniProt Q06418); test: HTRF kinase activity biochemical assay, TYRO3; conditions: 10 μM ATP, 30 minutes pre-incubation; read-out: HTRF TYRO IC50
T3 construct: TYRO3 (455-end); purchased SignalChem, Canada
T3 sequence (Q06418 455-890 limits assumed): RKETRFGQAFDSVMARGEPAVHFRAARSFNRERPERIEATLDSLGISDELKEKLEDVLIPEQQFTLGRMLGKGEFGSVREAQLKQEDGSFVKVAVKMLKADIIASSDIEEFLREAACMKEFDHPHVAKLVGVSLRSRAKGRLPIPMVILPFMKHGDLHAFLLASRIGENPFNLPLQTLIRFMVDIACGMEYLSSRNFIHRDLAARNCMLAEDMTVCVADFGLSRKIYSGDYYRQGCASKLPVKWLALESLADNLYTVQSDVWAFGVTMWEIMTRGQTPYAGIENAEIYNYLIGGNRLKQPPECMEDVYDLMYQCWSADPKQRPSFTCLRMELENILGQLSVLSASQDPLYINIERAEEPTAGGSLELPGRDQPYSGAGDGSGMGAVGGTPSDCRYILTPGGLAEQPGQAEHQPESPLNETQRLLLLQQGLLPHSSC
Protocol: as §1

IC50 (human AXL (473-end)) [nM] | IC50 (human MER (528-end)) [nM] | IC50 (human TYRO3 (455-end)) [nM] | Compound
100 to 1000 | 10 to 100 | > 1000 | Cn1cc(-c2cnc(N)c(C(=O)N[C@H]3CCC[C@@H]3OCc3ccc(-c4ccc5c(cnn5C5CCN(CCO)CC5)c4)cc3)c2)cn1 [Example 111, 2-amino-N-{(1S,2S)-2-[(4-{1-[1-(2-hydroxyethyl)piperidin-4-yl]-1H-indazol-5-yl}phenyl)methoxy]cyclopentyl}-5-(1-methyl-1H-pyrazol-4-yl)pyridine-3-carboxamide]
< 10 |  | 100 to 1000 | Nc1ncc(-c2cccnc2F)cc1C(=O)N[C@H]1CCC[C@@H]1OCc1ccc(-c2ccc3c(c2)CC[C@@H]3N2CCN(CC(O)CO)CC2)cc1 (stereo partly drawn) [Example 102, 6-amino-N-{(1S,2S)-2-[(4-{(1S)-1-[4-(2,3-dihydroxypropyl)piperazin-1-yl]-2,3-dihydro-1H-inden-5-yl}phenyl)methoxy]cyclopentyl}-2′-fluoro[3,3′-bipyridine]-5-carboxamide]
< 10 |  | 100 to 1000 | Nc1ncc(-c2ccc(F)nc2)cc1C(=O)N[C@H]1CCC[C@@H]1OCc1ccc(-c2ccc3c(c2)CCC3N2CCN(CC(O)CO)CC2)cc1 (stereo partly drawn) [Example 80, 6-amino-N-{(1S,2S)-2-[(4-{1-[4-(2,3-dihydroxypropyl)piperazin-1-yl]-2,3-dihydro-1H-inden-5-yl}phenyl)methoxy]cyclopentyl}-6′-fluoro[3,3′-bipyridine]-5-carboxamide]
< 10 |  | 100 to 1000 | Nc1ncc(-c2ccc(F)nc2)cc1C(=O)N[C@H]1CCC[C@@H]1OCc1ccc(-c2ccc3c(c2)CC[C@@H]3N2CCN(CC(O)CO)CC2)cc1 (stereo partly drawn) [Example 100, 6-amino-N-{(1S,2S)-2-[(4-{(1S)-1-[4-(2,3-dihydroxypropyl)piperazin-1-yl]-2,3-dihydro-1H-inden-5-yl}phenyl)methoxy]cyclopentyl}-6′-fluoro[3,3′-bipyridine]-5-carboxamide]
< 10 |  | 100 to 1000 | Nc1ncc(-c2cccnc2F)cc1C(=O)N[C@H]1CCC[C@@H]1OCc1ccc(-c2ccc3c(c2)CC[C@@H]3N2CCN(C[C@@H](O)CO)CC2)cc1 [Example 167, 6-amino-N-[(1S,2S)-2-({4-[(1S)-1-{4-[(2R)-2,3-dihydroxypropyl]piperazin-1-yl}-2,3-dihydro-1H-inden-5-yl]phenyl}methoxy)cyclopentyl]-2′-fluoro[3,3′-bipyridine]-5-carboxamide]

The remaining lines, values behind:

Compound | IC50 (human AXL (473-end)) [nM] | IC50 (human MER (528-end)) [nM] | IC50 (human TYRO3 (455-end)) [nM]
Nc1ncc(-c2ccc(F)nc2)cc1C(=O)N[C@H]1COC[C@@H]1OCc1ccc(-c2ccc3c(ccn3C3CCN(CCO)CC3)c2)cc1 [Example 25, 6-amino-6′-fluoro-N-{(3S,4R)-4-[(4-{1-[1-(2-hydroxyethyl)piperidin-4-yl]-1H-indol-5-yl}phenyl)methoxy]oxolan-3-yl}[3,3′-bipyridine]-5-carboxamide] | 10 to 100 | < 10 | > 1000
CN1C[C@H](NC(=O)c2cc(-c3ccc(F)nc3)cnc2N)[C@@H](OCc2ccc(-c3ccc4c(c3)C(C)(C)CN4C3CCN(CCO)CC3)cc2)C1 [Example 37, 6-amino-6′-fluoro-N-{(3S,4S)-4-[(4-{1-[1-(2-hydroxyethyl)piperidin-4-yl]-3,3-dimethyl-2,3-dihydro-1H-indol-5-yl}phenyl)methoxy]-1-methylpyrrolidin-3-yl}[3,3′-bipyridine]-5-carboxamide] | 10 to 100 | < 10 | 100 to 1000
COc1cccc(-c2cnc(N)c(C(=O)N[C@H]3CCC[C@@H]3OCc3ccc(-c4ccc5c(c4)CC[C@@H]5N4CCN(CCO)CC4)cc3)c2)n1 [Example 178, 6′-amino-N-{(1S,2S)-2-[(4-{(1S)-1-[4-(2-hydroxyethyl)piperazin-1-yl]-2,3-dihydro-1H-inden-5-yl}phenyl)methoxy]cyclopentyl}-6-methoxy[2,3′-bipyridine]-5′-carboxamide] | < 10 | < 10 | 10 to 100
Cn1cc(-c2cnc(N)c(C(=O)N[C@H]3CCC[C@@H]3OCc3ccc(-c4ccc5c(c4)CC(F)(F)[C@H]5N4CCN(CCO)CC4)cc3)c2)cn1 [Example 66, 2-amino-N-{(1S,2S)-2-[(4-{(1S)-2,2-difluoro-1-[4-(2-hydroxyethyl)piperazin-1-yl]-2,3-dihydro-1H-inden-5-yl}phenyl)methoxy]cyclopentyl}-5-(1-methyl-1H-pyrazol-4-yl)pyridine-3-carboxamide] | 10 to 100 | 10 to 100 | > 1000
COc1nc(-c2cnc(N)c(C(=O)N[C@H]3CCC[C@@H]3OCc3ccc(-c4ccc5c(c4)CC[C@@H]5N4CCN(CCO)CC4)cc3)c2)cs1 [Example 179, 2-amino-N-{(1S,2S)-2-[(4-{(1S)-1-[4-(2-hydroxyethyl)piperazin-1-yl]-2,3-dihydro-1H-inden-5-yl}phenyl)methoxy]cyclopentyl}-5-(2-methoxy-1,3-thiazol-4-yl)pyridine-3-carboxamide] | < 10 | < 10 | 10 to 100
CN1CCN(C2CC(C)(C)c3cc(-c4ccc(CO[C@H]5CCC[C@@H]5NC(=O)c5cc(-c6ccc(F)nc6)cnc5N)cc4)ccc32)CC1 (stereo partly drawn) [Example 94, 6-amino-N-[(1S,2S)-2-({4-[3,3-dimethyl-1-(4-methylpiperazin-1-yl)-2,3-dihydro-1H-inden-5-yl]phenyl}methoxy)cyclopentyl]-6′-fluoro[3,3′-bipyridine]-5-carboxamide] | < 10 | < 10 | 10 to 100
Cc1c(-c2cnc(N)c(C(=O)N[C@H]3COC[C@@H]3OCc3ccc(-c4ccc5c(c4)C(C)(C)CN5C4CCN(CCO)CC4)cc3)c2)cnn1C [Example 47, 2-amino-5-(1,5-dimethyl-1H-pyrazol-4-yl)-N-{(3S,4R)-4-[(4-{1-[1-(2-hydroxyethyl)piperidin-4-yl]-3,3-dimethyl-2,3-dihydro-1H-indol-5-yl}phenyl)methoxy]oxolan-3-yl}pyridine-3-carboxamide] | < 10 | < 10 | 10 to 100
Nc1ncc(-c2cccnc2F)cc1C(=O)N[C@H]1CCC[C@@H]1OCc1ccc(-c2ccc3c(c2)CCC3N2CCN(CCO)CC2)cc1 (stereo partly drawn) [Example 82, 6-amino-2′-fluoro-N-{(1S,2S)-2-[(4-{1-[4-(2-hydroxyethyl)piperazin-1-yl]-2,3-dihydro-1H-inden-5-yl}phenyl)methoxy]cyclopentyl}[3,3′-bipyridine]-5-carboxamide] | < 10 |  | 100 to 1000
Nc1ncc(-c2cccnc2F)cc1C(=O)N[C@H]1CCC[C@@H]1OCc1ccc(-c2ccc3c(c2)CCC[C@@H]3N2CCN(C[C@H](O)CO)CC2)cc1 [Example 173, 6-amino-N-[(1S,2S)-2-({4-[(5S)-5-{4-[(2S)-2,3-dihydroxypropyl]piperazin-1-yl}-5,6,7,8-tetrahydronaphthalen-2-yl]phenyl}methoxy)cyclopentyl]-2′-fluoro[3,3′-bipyridine]-5-carboxamide] | < 10 |  | 10 to 100
Nc1ncc(-c2cccnc2F)cc1C(=O)N[C@H]1CCC[C@@H]1OCc1ccc(-c2ccc3c(c2)CC[C@@H]3N2CCN(C[C@H](O)CO)CC2)cc1 [Example 166, 6-amino-N-[(1S,2S)-2-({4-[(1S)-1-{4-[(2S)-2,3-dihydroxypropyl]piperazin-1-yl}-2,3-dihydro-1H-inden-5-yl]phenyl}methoxy)cyclopentyl]-2′-fluoro[3,3′-bipyridine]-5-carboxamide] | < 10 |  | 100 to 1000
